Reference: ChEMBL document CHEMBL5543142, “Discovery of YFJ-36: Design, Synthesis, and Antibacterial Activities of Catechol-Conjugated β-Lactams against Gram-Negative Bacteria” (J Med Chem, 2024)

Columns and labels:
[1] = MRT in ICR mouse at 20 mg/kg,iv administration measured upto 6 hrs by LC-MS/MS analysis; type: ADME, organism-based; settings: in vivo
[2] = test system: Klebsiella pneumoniae; assay: Antibacterial activity against KPC-2 producing multidrug-resistant Klebsiella pneumoniae clinical isolate 15-3 assessed as inhibition of bacterial growth incubated for 18 to 20 hrs by two fold serial dilution assay; type: functional; settings: time 18-20 hrs
[3] = test system: Pseudomonas aeruginosa; assay: Antibacterial activity against IMP-4 producing multidrug-resistant Pseudomonas aeruginosa clinical isolate 17-13 assessed as inhibition of bacterial growth incubated for 18 to 20 hrs by two fold serial dilution assay; type: functional; settings: time 18-20 hrs
[4] = test system: Acinetobacter baumannii; assay: Antibacterial activity against OXA-23 producing multidrug-resistant Acinetobacter baumannii clinical isolate 15-5 assessed as inhibition of bacterial growth incubated for 18 to 20 hrs by two fold serial dilution assay; type: functional; settings: time 18-20 hrs
[5] = test system: Escherichia coli; assay: Antibacterial activity against ESBL-producing multidrug-resistant Escherichia coli clinical isolate 14-1 assessed as inhibition of bacterial growth incubated for 18 to 20 hrs by two fold serial dilution assay; type: functional; settings: time 18-20 hrs
[6] = Half life in ICR mouse at 20 mg/kg,iv administration measured upto 6 hrs by LC-MS/MS analysis; type: ADME, organism-based; settings: in vivo
[7] = test system: Escherichia coli; assay: Antibacterial activity against Escherichia coli ATCC35218 assessed as inhibition of bacterial growth incubated for 18 to 20 hrs by two fold serial dilution assay; type: functional; settings: time 18-20 hrs
[8] = AUC (0 to infinity) in ICR mouse at 20 mg/kg,iv administration measured upto 6 hrs by LC-MS/MS analysis; type: ADME, organism-based; settings: in vivo
[9] = test system: Pseudomonas aeruginosa; assay: Antibacterial activity against IMP-4 producing multidrug-resistant Pseudomonas aeruginosa clinical isolate 19-17 assessed as inhibition of bacterial growth incubated for 18 to 20 hrs by two fold serial dilution assay; type: functional; settings: time 18-20 hrs
[10] = Clearance in ICR mouse at 20 mg/kg,iv administration measured upto 6 hrs by LC-MS/MS analysis; type: ADME, organism-based; settings: in vivo
[11] = test system: Acinetobacter baumannii; assay: Antibacterial activity against OXA-23 producing multidrug-resistant Acinetobacter baumannii clinical isolate 15-3 assessed as inhibition of bacterial growth incubated for 18 to 20 hrs by two fold serial dilution assay; type: functional; settings: time 18-20 hrs
[12] = test system: Klebsiella pneumoniae; assay: Antibacterial activity against KPC-2 producing multidrug-resistant Klebsiella pneumoniae clinical isolate 15-5 assessed as inhibition of bacterial growth incubated for 18 to 20 hrs by two fold serial dilution assay; type: functional; settings: time 18-20 hrs
[13] = test system: Acinetobacter baumannii; assay: Antibacterial activity against OXA-23 producing multidrug-resistant Acinetobacter baumannii clinical isolate 15-1 assessed as inhibition of bacterial growth incubated for 18 to 20 hrs by two fold serial dilution assay; type: functional; settings: time 18-20 hrs
[14] = test system: Escherichia coli; assay: Antibacterial activity against ESBL-producing multidrug-resistant Escherichia coli clinical isolate 14-4 assessed as inhibition of bacterial growth incubated for 18 to 20 hrs by two fold serial dilution assay; type: functional; settings: time 18-20 hrs
[15] = Volume of distribution at steady state in ICR mouse at 20 mg/kg,iv administration measured upto 6 hrs by LC-MS/MS analysis; type: ADME, organism-based; settings: in vivo, read-out: Vdss
[16] = test system: Klebsiella pneumoniae; assay: Antibacterial activity against KPC-2 producing multidrug-resistant Klebsiella pneumoniae clinical isolate 15-1 assessed as inhibition of bacterial growth incubated for 18 to 20 hrs by two fold serial dilution assay; type: functional; settings: time 18-20 hrs
[17] = test system: Acinetobacter baumannii; assay: Antibacterial activity against OXA-23 producing multidrug-resistant Acinetobacter baumannii clinical isolate 15-4 assessed as inhibition of bacterial growth incubated for 18 to 20 hrs by two fold serial dilution assay; type: functional; settings: time 18-20 hrs
[18] = test system: Acinetobacter baumannii; assay: Antibacterial activity against OXA-23 producing multidrug-resistant Acinetobacter baumannii clinical isolate 15-2 assessed as inhibition of bacterial growth incubated for 18 to 20 hrs by two fold serial dilution assay; type: functional; settings: time 18-20 hrs
[19] = test system: Escherichia coli; assay: Antibacterial activity against ESBL-producing multidrug-resistant Escherichia coli clinical isolate 14-2 assessed as inhibition of bacterial growth incubated for 18 to 20 hrs by two fold serial dilution assay; type: functional; settings: time 18-20 hrs
[20] = test system: Klebsiella pneumoniae; assay: Antibacterial activity against KPC-2 producing multidrug-resistant Klebsiella pneumoniae clinical isolate 15-2 assessed as inhibition of bacterial growth incubated for 18 to 20 hrs by two fold serial dilution assay; type: functional; settings: time 18-20 hrs
[21] = test system: Acinetobacter baumannii; assay: Antibacterial activity against OXA-23 producing multidrug-resistant Acinetobacter baumannii clinical isolate 17-2 assessed as inhibition of bacterial growth incubated for 18 to 20 hrs by two fold serial dilution assay; type: functional; settings: time 18-20 hrs
[22] = test system: Pseudomonas aeruginosa; assay: Antibacterial activity against IMP-4 producing multidrug-resistant Pseudomonas aeruginosa clinical isolate 19-5 assessed as inhibition of bacterial growth incubated for 18 to 20 hrs by two fold serial dilution assay; type: functional; settings: time 18-20 hrs
[23] = test system: Acinetobacter baumannii; assay: Antibacterial activity against OXA-23 producing multidrug-resistant Acinetobacter baumannii clinical isolate 17-3 assessed as inhibition of bacterial growth incubated for 18 to 20 hrs by two fold serial dilution assay; type: functional; settings: time 18-20 hrs
[24] = test system: Pseudomonas aeruginosa; assay: Antibacterial activity against IMP-4 producing multidrug-resistant Pseudomonas aeruginosa clinical isolate 15-5 assessed as inhibition of bacterial growth incubated for 18 to 20 hrs by two fold serial dilution assay; type: functional; settings: time 18-20 hrs
[25] = test system: Pseudomonas aeruginosa; assay: Antibacterial activity against IMP-4 producing multidrug-resistant Pseudomonas aeruginosa clinical isolate 15-1 assessed as inhibition of bacterial growth incubated for 18 to 20 hrs by two fold serial dilution assay; type: functional; settings: time 18-20 hrs
[26] = test system: Pseudomonas aeruginosa; assay: Antibacterial activity against IMP-4 producing multidrug-resistant Pseudomonas aeruginosa clinical isolate 15-4 assessed as inhibition of bacterial growth incubated for 18 to 20 hrs by two fold serial dilution assay; type: functional; settings: time 18-20 hrs
[27] = test system: Pseudomonas aeruginosa; assay: Antibacterial activity against Pseudomonas aeruginosa ATCC 27853 assessed as inhibition of bacterial growth incubated for 18 to 20 hrs by two fold serial dilution assay; type: functional; settings: time 18-20 hrs
[28] = test system: Pseudomonas aeruginosa; assay: Antibacterial activity against IMP-4 producing multidrug-resistant Pseudomonas aeruginosa clinical isolate 19-1 assessed as inhibition of bacterial growth incubated for 18 to 20 hrs by two fold serial dilution assay; type: functional; settings: time 18-20 hrs

SMILES | MRT [1] [min] | MIC [2] [µg/mL] | MIC [3] [µg/mL] | MIC [4] [µg/mL] | MIC [5] [µg/mL] | half-life [6] [min] | MIC [7] [µg/mL] | MIC [11] [µg/mL] | MIC [12] [µg/mL] | MIC [13] [µg/mL] | MIC [14] [µg/mL] | MIC [16] [µg/mL] | MIC [17] [µg/mL] | MIC [18] [µg/mL] | MIC [19] [µg/mL] | MIC [20] [µg/mL] | MIC [24] [µg/mL] | MIC [25] [µg/mL] | MIC [26] [µg/mL] | MIC [27] [µg/mL] | also measured
CC1CCC(C(O/N=C(\C(=O)N[C@@H]2C(=O)N3C(C(=O)O)=C(CSCCNC(=O)c4ccc(O)c(O)c4Cl)CS[C@H]23)c2csc(N)n2)C(=O)O)CC1.O=C(O)C(F)(F)F (some centres not stated) | 35.4 | 1 | 0.5 | 8 | 0.5 | 139 | ≤ 0.03 | 4 | 0.5 | 4 | 0.125 | 1 | 4 | 8 | 0.5 | 0.5 |  |  |  |  | AUC(0-inf) [8]: 5760 ng·h/mL; MIC [9]: 0.5 µg/mL; clearance [10]: 60.3 mL/min/kg; Vd [15]: 2.37 L/kg
Nc1nc(/C(=N/OC(C(=O)O)C2CCCCC2)C(=O)N[C@@H]2C(=O)N3C(C(=O)O)=C(CSCCNC(=O)c4ccc(O)c(O)c4Cl)CS[C@H]23)c(Cl)s1.O=C(O)C(F)(F)F (some centres not stated) |  | 2 | 0.25 | 4 | 0.25 |  | 0.125 | 4 | 1 | 4 | 0.5 | 1 | 2 | 2 | 0.5 | 1 |  |  |  |  | MIC [21]: 1 µg/mL; MIC [22]: 1 µg/mL; MIC [23]: 2 µg/mL; MIC [9]: 0.5 µg/mL
Cc1ccc(S(=O)(=O)O)cc1.Nc1nc(/C(=N/OC(C(=O)O)C2CCC(F)(F)CC2)C(=O)N[C@@H]2C(=O)N3C(C(=O)O)=C(CSCCNC(=O)c4ccc(O)c(O)c4Cl)CS[C@H]23)cs1 (some centres not stated) | 12 |  |  |  |  | 45 |  |  |  |  |  |  |  |  |  |  |  |  |  |  | AUC(0-inf) [8]: 11600 ng·h/mL; clearance [10]: 31.3 mL/min/kg; Vd [15]: 0.402 L/kg
CC(C)(C)C(O/N=C(\C(=O)N[C@@H]1C(=O)N2C(C(=O)O)=C(CSCCNC(=O)c3ccc(O)c(O)c3Cl)CS[C@H]12)c1csc(N)n1)C(=O)O.O=C(O)C(F)(F)F (some centres not stated) |  | 16 |  | 2 | 0.06 |  |  | 2 | 0.5 | 2 | 2 | 0.25 | 1 | 1 | 1 | 1 | 4 | 4 | 8 | 4 | 
CC(C)(O/N=C(\C(=O)N[C@@H]1C(=O)N2C(C(=O)[O-])=C(C[N+]3(CCNC(=O)c4ccc(O)c(O)c4Cl)CCCC3)CS[C@H]12)c1csc(N)n1)C(=O)O.O=C(O)C(F)(F)F | 26.4 |  |  |  |  | 33 |  |  |  |  |  |  |  |  |  |  |  |  |  |  | AUC(0-inf) [8]: 11600 ng·h/mL; clearance [10]: 25.2 mL/min/kg; Vd [15]: 0.663 L/kg
Nc1nc(/C(=N/OC2(C(=O)O)CCC2)C(=O)N[C@@H]2C(=O)N3C(C(=O)O)=C(CSCCNC(=O)c4ccc(O)c(O)c4Cl)CS[C@H]23)cs1.O=C(O)C(F)(F)F |  | 8 |  | 32 | 0.25 |  |  | 32 | 4 | 32 | 32 | 2 | 32 | 32 | 2 | 4 | 2 | 1 | 1 | 2 | 
Nc1nc(/C(=N/OC(C(=O)O)C2CCC(F)(F)CC2)C(=O)N[C@@H]2C(=O)N3C(C(=O)O)=C(CSCCNC(=O)c4ccc(O)c(O)c4Cl)CS[C@H]23)ns1.O=C(O)C(F)(F)F (some centres not stated) |  | 16 | 0.5 |  | 1 |  | 0.25 |  | 16 |  | 1 | 16 |  |  | 4 | 32 |  |  |  |  | MIC [21]: 0.25 µg/mL; MIC [22]: 4 µg/mL; MIC [23]: 0.25 µg/mL; MIC [9]: 1 µg/mL; MIC [28]: 8 µg/mL
CC(C)C(O/N=C(\C(=O)N[C@@H]1C(=O)N2C(C(=O)O)=C(CS[C@H]3CC[C@@H](NC(=O)c4ccc(O)c(O)c4Cl)CC3)CS[C@H]12)c1csc(N)n1)C(=O)O.O=C(O)C(F)(F)F (some centres not stated) |  | 4 |  | 16 | 0.125 |  |  | 32 | 2 | 32 | 16 | 2 | 16 | 16 | 2 | 2 | 8 | 8 | 2 | 2 | 
Nc1nc(/C(=N/OC(C(=O)O)C2CCCCC2)C(=O)N[C@@H]2C(=O)N3C(C(=O)O)=C(CSCCNC(=O)c4ccc(O)c(O)c4Cl)CS[C@H]23)c(Br)s1.O=C(O)C(F)(F)F (some centres not stated) |  | 8 | 0.25 | 1 | 1 |  | 0.06 | 2 | 1 | 2 | 0.25 | 2 | 2 | 1 | 0.5 | 2 |  |  |  |  | MIC [21]: 1 µg/mL; MIC [22]: 1 µg/mL; MIC [23]: 1 µg/mL; MIC [9]: 0.5 µg/mL; MIC [28]: 4 µg/mL
Nc1nc(/C(=N/OC2(C(=O)O)CC2)C(=O)N[C@@H]2C(=O)N3C(C(=O)O)=C(CSCCNC(=O)c4ccc(O)c(O)c4Cl)CS[C@H]23)cs1.O=C(O)C(F)(F)F |  | > 64 |  | 64 | 0.5 |  |  | 32 | 32 | 64 | 64 | 16 | 64 | 64 | 2 | 32 | 4 | 1 | 1 | 4 | 
CC(C)C(O/N=C(\C(=O)N[C@@H]1C(=O)N2C(C(=O)O)=C(CSCCNC(=O)c3ccc(O)c(O)c3Cl)CS[C@H]12)c1csc(N)n1)C(=O)O.O=C(O)C(F)(F)F (some centres not stated) |  | 0.5 |  | 4 | 0.06 |  |  | 4 | 0.25 | 8 | 0.5 | 0.5 | 4 | 4 | 2 | 0.5 | 4 | 2 | 4 | 8 | 
Cl.Nc1nc(/C(=N/OC(C(=O)O)C2CCC(F)(F)CC2)C(=O)N[C@@H]2C(=O)N3C(C(=O)O)=C(CSCCNC(=O)c4ccc(O)c(O)c4Cl)CS[C@H]23)cs1 (some centres not stated) | 18.6 |  |  |  |  | 46.8 |  |  |  |  |  |  |  |  |  |  |  |  |  |  | AUC(0-inf) [8]: 6340 ng·h/mL; clearance [10]: 54 mL/min/kg; Vd [15]: 0.997 L/kg
CC(C)(C)C(O/N=C(\C(=O)N[C@@H]1C(=O)N2C(C(=O)O)=C(CS[C@H]3CC[C@@H](NC(=O)c4ccc(O)c(O)c4Cl)CC3)CS[C@H]12)c1csc(N)n1)C(=O)O.O=C(O)C(F)(F)F (some centres not stated) |  | 32 |  | 8 | 0.5 |  |  | 8 | 1 | 8 | 4 | 4 | 4 | 4 | 4 | 16 | 8 | 8 | 16 | 8 | 
